Source: PMC10111022, “Comparison of pharmacological inhibitors of lysine-specific demethylase 1 in glioblastoma stem cells reveals inhibitor-specific efficacy profiles” (Frontiers in Neurology, 2023)

How the values were obtained:
[1] = tested on: MDA-GSC8-11; test: qPCR of resistance-related genes, MDA-GSC8-11; type: cell-based, Human; conditions: MDA-GSC8-11 (resistant)
Experimental: (§1) Total RNA was extracted using RNeasy Plus Mini Kit (Qiagen; Hilden, Germany) following the manufacturer’s protocol. cDNA was synthesized with the iScript cDNA synthesis kit (Bio-Rad; Hercules, CA), qPCR was performed using Forget-Me-Not EvaGreen qPCR kit (Biotium; Fremont, CA), and samples were analyzed with the LightCycler96 (Roche; Basel, Switzerland). Cq values were normalized to PPIA and reported as relative fold change from untreated control.

[2] = tested on: MDA-GSC lines; test: Cell viability across the panel of nine MDA-GSC lines; type: cell-based, Human; conditions: many/several MDA-GSC lines, dose response curves Figure 2
Experimental: MDA-GSCs were plated at 50,000 cells/well into 12-well plates at and allowed to grow for 5 days until neurospheres were formed. The cells were then treated with either TCP, GSK-LSD1, or RN-1 at various concentrations for 5 days. Next, the cells were collected and neurospheres were dissociated with Accutase (BioLegend; San Diego, CA). Cell viability was determined using a trypan dye exclusion assay and read with the Vi-Cell XR Cell Viability Analyzer (Beckman Coulter; Brea, CA). NHAs were plated at 50,000 cells/well into 12-well plates and allowed to adhere overnight. The following day, NHAs were treated with the LSD1 inhibitors. After 5 days, the cells were detached using TrypLE and assessed with the trypan blue dye exclusion assay.
The alamarBlue cell viability (Bio-Rad; Hercules, CA) was performed on the MDA-GSCs according to the manufacturer’s protocol. The cells were plated at 5,000 cell/well into a 96-well plate and allowed to grow for 5 days. After 5 days, the alamarBlue reagent was added and fluorescence was measured with the Synergy 2 (BioTek Instruments; Winooski, VT) plate reader according to the manufacturer’s protocol.

[3] = tested on: brain tissue; test: qPCR of resistance-related genes in brain tissue of treated xenograft mouse; type: in vivo; conditions: treated mouse vs control mouse after succumbing to tumor burden
Experimental: as §1
We then measured the gene expression of the candidate gene set in brain tissue of a mouse treated with GSK-LSD1 compared to a control mouse after they succumbed to tumor burden. […] Finally, we assessed the presence of this gene set in patient data acquired from TCGA ([17], [18]). In a dataset of glioblastoma patient samples, LSD1 expression has an inverse relationship with the genes that correlate with resistance (Figures 6H,I). We then assessed the correlation between resistance related gene expression and GBM subtypes using TCGA (Figure 6J). From this analysis, we find that the mesenchymal subtype has an increased expression of HKDC1 and RAB3IL1 compared to classical and proneural. […] Overall, our established gene set may predict resistance to LSD1 inhibition and is concordant across in vitro experiments, in vivo studies, and is expressed in a LSD1 dependent manner in GBM patients.

[4] = tested on: MDA-GSC7-2; test: qPCR of resistance-related genes, MDA-GSC7-2; type: cell-based, Human; conditions: MDA-GSC7-2 (sensitive)
Experimental: as §1

[5] = tested on: MDA-GSC17; test: qPCR of resistance-related genes, MDA-GSC17; type: cell-based, Human; conditions: MDA-GSC17 (sensitive)
Experimental: as §1

[6] = tested on: MDA-GSC311, MDA-GSC20, MDA-GSC23, MDA-GSC8-11; test: Colony (neurosphere) formation assay; type: cell-based, Human; conditions: three of the four cell lines; 200-400 μM, 3 weeks
Experimental: Colony formation assay was performed on MDA-GSC 311, MDA-GSC 20, MDA-GSC 23, and MDA-GSC 8–11. Cells were plated in triplicate into clear, flat-bottom 96-well plates at 3 cells/well into 100 μL of media. MDA-GSCs were treated with 100 μL of GSK-LSD1 and allowed to grow for 3 weeks at 37°C before scoring. The final concentration of GSK-LSD1 in each well was determined using the IC50 in each cell line (MDA-GSC 311 at 200 μM, MDA-GSC 20 at 300 μM, MDA-GSC 23 at 200 μM, MDA-GSC 8–11 at 400 μM). Clonogenicity was scored using the Cell3iMager (Screen Life Science; Elk Grove Village, IL) to count the number of wells with colony formation as positive and wells without colony formation as negative.

[7] = tested on: MDA-GSC20 orthotopic xenograft; test: Intracranial orthotopic xenograft model, bioluminescence tumor burden and survival; type: in vivo, athymic nude mice
Experimental: All animal experiments were approved by the University of Texas MD Anderson Cancer Center Institutional Animal Care and Use Committee (IACUC) under protocol 638 (P.I. Chandra). An equal number of male and female athymic nude mice aged 4–6 weeks old were bolted with guide screws by MD Anderson’s Brain Tumor Center Animal Core as previously described ([16]). Ketamine/xylazine was administered for anesthesia and buprenorphine or buprenorphine sustained-release (SR) was administered for analgesia during and after the surgery. MDA-GSC20 luciferase labelled cells were resuspended in PBS and 500,000 cells were intracranially implanted into each mouse via guide screw. To monitor tumor engraftment and tumor progression throughout treatment, each mouse was imaged weekly using an IVIS 200 imager (Perkin Elmer; Waltham, MA). Mice were anesthetized via inhalation of isoflurane and injected with 200 μL of D-Luciferin (GoldBio; St Louis, MO) subcutaneously. Bioluminescence signal in the mice was read and reported as photons/s.
Once confirmation of intracranial tumor engraftment at 7 days post-engraftment, the mice were equally randomized into groups to receive either GSK-LSD1 or the vehicle control. The mice received GSK-LSD1 1 mg/kg diluted in DMSO and PBS (5 and 95%, respectively) via intraperitoneal injection (200 μL/mouse) while the control mice received the untreated vehicle in parallel. In accordance with the approved IACUC protocol (No: 638-RN03) at MD Anderson Cancer Center, treatment continued until the mice succumbed to tumor burden and were found in a moribund condition as determined by neurological impairment (hydrocephalus, seizures, inactivity, and/or ataxia) or morbidity (hunched posture or weight loss). At this time mice were euthanized by both carbon dioxide exposure and cervical dislocation. […]

[8] = tested on: human T cells; parameters: method as in PMID 32166329; conditions: direct effect on human T cells; cited from earlier work

c1ccc([C@@H]2C[C@H]2NC2CCNCC2)cc1 [GSK-LSD1]
expression of resistance-related genes [1]: increase in the same two gene | concentrations at which MDA-GSC viability was reduced [2]: 250 to 750 µM | expression of candidate gene set in brain tissue [3]: three of the four genes, except for FAM213A, were upregulated | expression of resistance-related genes (FTH1, RAB39B, HKDC1, FAM213A) [4]: inappreciable effects | expression of resistance-related genes [5]: not | capacity to form neurospheres from single cells [6]: reduced capacity to form neurospheres | rate of tumor progression ([7]; 1 mg/kg intraperitoneal, week 11, vs control mice): lower rate of tumor progression | tumor burden (bioluminescence) ([7]; 1 mg/kg intraperitoneal, week seven, vs control): strong regression in tumor burden | overall survival ([7]; continued dosing beyond week 11): ineffective to improve overall survival | human T cell growth [8]: minimally impacted
